Test results reported in patent US8420693B2, “Dipyrrole compounds, compositions, and methods for treating cancer or viral diseases” (Gemin X Pharmaceuticals Canada Inc., priority 2004, dated 2013).
pIC50: −log10 of the molar value. Where a name gives a salt, the structure may show the parent alone.

Experiments:
[1] = system: C33A human cervical cancer cells; test: Growth of C33A cervical tumors in CB17 SCID/SCID mice; assay type: in vivo; conditions: for T/C value: day 42
From the text: (§1) As used herein, the term “T/C value” refers to the value obtained when: (a) the change from baseline in average tumor volume of treated mice is divided by the change from baseline in the average tumor volume of negative control mice; and (b) the numerical value obtained in step (a) is multiplied by 100.
The resultant mice are a model for a human having cervical cancer.
The C33A human cervical cancer cells were maintained in RPMI (Hyclone, Utah, USA) supplemented with 10% inactivated fetal bovine serum (Bio-Whittaker, MD, USA) and 1% penicillin-streptomycin-L-Glutamine (Gibco, N.Y., USA), under 5% CO2 at 37° C., and passaged twice a week. The cells were grown at a confluency lower than 70% and than collected with Trypsin (Bio-Whittaker, MD, USA). The cells were then centrifuged and washed twice using phosphate buffered saline solution (PBS) and resuspended in PBS at 2×10^6 cells per 100 μl. Viability was examined by staining with trypan blue (Gibco, N.Y., USA) and only flasks with cell viability greater than 95% were used for in vivo studies.
C33A cells were injected subcutaneously into the flank of female CB17 SCID/SCID mice. Each mouse was inoculated with a suspension of 2×10^6 tumors cells per 100 μl on day zero. There were three treatment groups of ten mice each: (a) a negative control group, (b) a group treated with Compound 22 MS and (c) a group treated with Compound 37 MS.
Treatments started on day twenty eight after C33A cells transplantation. […] The negative control group was treated with vehicle alone. The injection volume for Compound treated groups and the negative control group was 100 μl.
Observation continued for 51 days after initial tumor implantation.

[2] = system: human prostatic adenocarcinoma cancer PC3 cells; test: Growth of PC3 prostate tumors in SCID mice; assay type: in vivo
From the text: as §1
The resultant mice are a model for a human having prostatic cancer.
The human prostatic adenocarcinoma cancer PC3 cells were purchased from the American Type Culture Collection (ATCC). These cells were confirmed to be free of mycoplasma infection. Cells were maintained in the Roswell Park Memorial Institute (RPMI), supplemented with 10% inactivated fetal bovine serum and 1% penicillin-streptomycin-L-Glutamine, under 5% carbon dioxide (CO2) at 37° C. For prostatic-tumor induction, cells were grown lower than 70% confluence in complete medium and then collected with trypsin (Bio Whittaker, Rockland, Me., USA). Cells were then centrifuged and washed 2 times in phosphate buffer solution (PBS) and resuspended in PBS at 1.5×10^6 cells/0.1 mL. PC3 cells were then transplanted subcutaneously into the right flank of SCID mice (Charles River Laboratories, Wilmington, Mass., USA), as a suspension of tumor cells (1.5×10^6 cells in 100 μL PBS), under a laminar airflow hood. Eleven (11) days later, the size of each tumor was measured. […] Relative tumor size and volume was calculated as follows: length (cm)×[width (cm)]^2/2. There were four treatment groups of ten mice each: (a) a negative control group, (b) a positive control group and (c) a group treated with 36.25 μMoles/Kg of Compound 17 Mesylate Salt (d) a group treated with 72.5 μMoles/Kg of Compound 17 Mesylate Salt.
Treatments started on day eleven after PC3 cells transplantation. […] The negative control group was treated with vehicle alone.
Observation continued for 32 days after initial tumor implantation.

[3] = system: C33A cervical carcinoma cells; test: Cancer cell viability by cellular ATP levels (ViaLight), C33A; assay type: cell-based; conditions: Homo sapiens, C-33-A, 72 h, 3 days of incubation, ATP levels relative to untreated control
Method: (§2) Selected cell lines included C33A cervical carcinoma cells and H1299 human non-small cell lung cancer-cells (American Type Culture Collection, Manassas, Va. USA), which were cultured in the media recommended by the American Type Culture Collection. The cells lines were plated in 96-well microtiter plates (PerkinElmer Life Sciences Inc, Boston, Mass., USA) at a confluency that allowed them to reach confluence after 4 days of growth. One day after plating, the cells were treated with various concentrations of Compounds. Stock solutions of the Compounds were prepared in dimethyl sulfoxide (Sigma-Aldrich Inc., St. Louis, Mo., USA), diluted in the recommended media and then added to the cells. The total dimethyl sulfoxide on the cells was 0.1%. After 3 days of incubation the ATP levels in the cells were quantified using a luminescent ViaLight detection system (Bio-Whittaker, MD, USA). The results were plotted relative to untreated control cells, which were set at a value of 100. The IC50s were determined using a best-fit sigmoidal dose response curve with variable slope.

[4] = system: H1299 human non-small cell lung cancer-cells; test: Cancer cell viability by cellular ATP levels (ViaLight), H1299; assay type: cell-based; conditions: NCI-H1299, 72 h, 3 days of incubation, ATP levels relative to untreated control
Method: as §2

[5] = 2.6 mg/kg iv once a day for five days
[6] = 10 mg/kg iv once a day for five days

For `COC1=CC(c2cnn(Cc3ccccc3)c2)=NC1=Cc1[nH]c(C)cc1C` [Compound 37 MS, 1-benzyl-4-(4-methoxy-5-((3,5-dimethyl-1H-pyrrol-2-yl)methylene)-5H-pyrrol-2-yl)-1H-pyrazole], the “reduction in tumor growth compared to mice treated with vehicle only” value (shortened to “reduction in tumor growth”) [1, 5] was “statistically significant (p<0.0001) reduction in tumor growth” and the T/C value [1, 5] was 31%.

For `COC1=CC(c2ccc(N(C)C)cc2)=NC1=Cc1[nH]c(C)cc1C` [Compound 22 MS, 4-(4-methoxy-5-((3,5-dimethyl-1H-pyrrol-2-yl)methylene)-5H-pyrrol-2-yl)-N,N-dimethylbenzenamine], the “reduction in tumor growth” value [1, 6] was “statistically significant (p=0.0024) reduction in tumor growth” and the T/C value [1, 6] was 34%.

In the case of `COC1=CC(c2ccc(OC)c(OC)c2)=NC1=Cc1[nH]c(C)cc1C` [Compound 17 Mesylate Salt, 2-((3-methoxy-5-(3,4-dimethoxyphenyl)-2H-pyrrol-2-ylidene)methyl)-3,5-dimethyl-1H-pyrrole], the “reduction in tumor growth” value ([2]; 36.25 μMoles/Kg iv once a day for five days) was “did not result in a statistical significant reduction in tumor growth”, the T/C value ([2]; 36.25 μMoles/Kg iv once a day for five days, day 29) was 53% and the T/C value ([2]; 36.25 μMoles/Kg iv once a day for five days, day 32) was 52%. For the same compound, the T/C value ([2]; 72.5 μMoles/Kg iv once a day for five days, day 29) was 18%, the T/C value ([2]; 72.5 μMoles/Kg iv once a day for five days, day 32) was 22% and the “reduction in tumor growth” value ([2]; 72.5 μMoles/Kg iv once a day for five days, days 29 and 32) was “statistically significant (p<0.01) reduction in tumor growth”.

`COC1=CC(c2ccc(N(C)C)cc2)=NC1=Cc1[nH]c(C)cc1C` [Compound 22, 4-(4-methoxy-5-((3,5-dimethyl-1H-pyrrol-2-yl)methylene)-5H-pyrrol-2-yl)-N,N-dimethylbenzenamine] gave a pIC50 [3] of 6.54 and a pIC50 [4] of 6.38.

For `COC1=CC(c2ccc(OC)c(OC)c2OC)=NC1=Cc1[nH]c(C)cc1C` [Compound 18, 2-((3-methoxy-5-(2,3,4-trimethoxyphenyl)-2H-pyrrol-2-ylidene)methyl)-3,5-dimethyl-1H-pyrrole], the pIC50 [3] was 5.70 and the pIC50 [4] was 5.40.

Work on `COC1=CC(c2ccc(NS(C)(=O)=O)cc2)=N/C1=C\c1[nH]c(C)cc1C` [Compound 8, N-4-(4-methoxy-5-((3,5-dimethyl-1H-pyrrol-2-yl)methylene)-5H-pyrrol-2-yl)-phenyl-methylsulfonamide] yielded a pIC50 [3] of 5.10 and a pIC50 [4] of 5.00.

`COC1=CC(c2ccc(OC)c(OC)c2)=NC1=Cc1[nH]c(C)cc1C` [Compound 17, 2-((3-methoxy-5-(3,4-dimethoxyphenyl)-2H-pyrrol-2-ylidene)methyl)-3,5-dimethyl-1H-pyrrole] gave a pIC50 [3] of 6.68 and a pIC50 [4] of 6.24.

`Cc1cc(C)c(C=C2N=C(c3ccc4c(c3)OCO4)C=C2OCc2ccccc2)[nH]1` [Compound 44, 5-(benzo[d][1,3]dioxol-5-yl)-3-(benzyloxy)-2-((3,5-dimethyl-1H-pyrrol-2-yl)methylene)-2H-pyrrole] showed a pIC50 [3] of 5.66 and a pIC50 [4] of 5.08.

`COC1=CC(c2cnc(OC)nc2OC)=NC1=Cc1[nH]c(C)cc1C` [Compound 32, 2,4-dimethoxy-5-(4-methoxy-5-((3,5-dimethyl-1H-pyrrol-2-yl)methylene)-5H-pyrrol-2-yl)pyrimidine] was tested, and the pIC50 [3] was 5.20 and the pIC50 [4] was 5.16.

For `COC1=CC(c2ccc3cc(OC)ccc3c2)=NC1=Cc1[nH]c(C)cc1C` [Compound 27, 2-((3-methoxy-5-(2-methoxynaphthalen-6-yl)-2H-pyrrol-2-ylidene)methyl)-3,5-dimethyl-1H-pyrrole], the pIC50 [3] was 5.16 and the pIC50 [4] was 5.20.

Compound `COC1=CC(c2cc3ccccc3s2)=NC1=Cc1[nH]c(C)cc1C` [Compound 10, 2-((5-(benzo[b]thiophen-2-yl)-3-methoxy-2H-pyrrol-2-ylidene)methyl)-3,5-dimethyl-1H-pyrrole] has a pIC50 [3] of 5.52 and a pIC50 [4] of 5.34.

`COC1=CC(c2ccc(Br)cc2)=NC1=Cc1[nH]c(C)cc1C` [Compound 29, 2-((5-(4-bromophenyl)-3-methoxy-2H-pyrrol-2-ylidene)methyl)-3,5-dimethyl-1H-pyrrole] was tested, and the pIC50 [3] was 5.94 and the pIC50 [4] was 5.18.

In the case of `COC1=CC(c2ccc3c(c2)OCO3)=NC1=Cc1[nH]c(C)cc1C` [Compound 20, 2-((5-(benzo[d][1,3]dioxol-5-yl)-3-methoxy-2H-pyrrol-2-ylidene)methyl)-3,5-dimethyl-1H-pyrrole], the pIC50 [3] was 6.68 and the pIC50 [4] was 6.26.
